Results as given in US11684616B2, “Azalactam compounds as HPK1 inhibitors” (PFIZER INC., priority 2020, dated 2023).

Legend:
[1] = target: human full-length autophosphorylated recombinant HPK1 (Homo sapiens (Human), UniProt Q92918); test: HPK1 biochemical enzyme assay (chelation-enhanced fluorescence, CHEF); conditions: 0.5 nM HPK1, 45 μM ATP, Morrison fit
Summary of the method: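 Autophosphorylated full-length human HPK1 from Sf21 cells, His-tag removed by TEV, residual N-terminal Gly-Ser. Activity measured with a C-Sox fluorescent peptide substrate (CHEF); initial velocities followed at λex 360/λem 500 nm, 30 °C for 15 min.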

[2] = system: Phospho-SLP-76 (Ser376) in Jurkat cells; test: Phospho-SLP-76 (Ser376) HTRF assay in anti-CD3 stimulated Jurkat cells; type: cell-based; conditions: Homo sapiens, Jurkat, 30 min pre-treatment, anti-CD3 stimulation 15 min, read-out: pSLP76 IC50
Summary of the method: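 Jurkat cells pre-treated 30 min with compound (11-point 3-fold series, final 10 μM to 0.1 nM, 0.1% DMSO), then stimulated 15 min at 37° C with 200 μg/mL F(ab)2-complexed anti-CD3 (UCTH1). Lysate phospho-SLP-76 read by HTRF sandwich after overnight RT incubation; IC50 from four-parameter fit.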

[3] = target: Human recombinant full-length GST-tagged PRKD2 (PKD2) (Homo sapiens (Human), UniProt Q9BZL6); test: Biochemical selectivity kinase assay (Z'-LYTE FRET), PRKD2; conditions: for IC50: 25 μM ATP (~Km); for PRKD2 IC50/HPK1 Ki: ratio of the PRKD2 IC50 to the HPK1 Ki
Sequence of Human recombinant full-length GST-tagged PRKD2 (PKD2) (Q9BZL6 whole entry): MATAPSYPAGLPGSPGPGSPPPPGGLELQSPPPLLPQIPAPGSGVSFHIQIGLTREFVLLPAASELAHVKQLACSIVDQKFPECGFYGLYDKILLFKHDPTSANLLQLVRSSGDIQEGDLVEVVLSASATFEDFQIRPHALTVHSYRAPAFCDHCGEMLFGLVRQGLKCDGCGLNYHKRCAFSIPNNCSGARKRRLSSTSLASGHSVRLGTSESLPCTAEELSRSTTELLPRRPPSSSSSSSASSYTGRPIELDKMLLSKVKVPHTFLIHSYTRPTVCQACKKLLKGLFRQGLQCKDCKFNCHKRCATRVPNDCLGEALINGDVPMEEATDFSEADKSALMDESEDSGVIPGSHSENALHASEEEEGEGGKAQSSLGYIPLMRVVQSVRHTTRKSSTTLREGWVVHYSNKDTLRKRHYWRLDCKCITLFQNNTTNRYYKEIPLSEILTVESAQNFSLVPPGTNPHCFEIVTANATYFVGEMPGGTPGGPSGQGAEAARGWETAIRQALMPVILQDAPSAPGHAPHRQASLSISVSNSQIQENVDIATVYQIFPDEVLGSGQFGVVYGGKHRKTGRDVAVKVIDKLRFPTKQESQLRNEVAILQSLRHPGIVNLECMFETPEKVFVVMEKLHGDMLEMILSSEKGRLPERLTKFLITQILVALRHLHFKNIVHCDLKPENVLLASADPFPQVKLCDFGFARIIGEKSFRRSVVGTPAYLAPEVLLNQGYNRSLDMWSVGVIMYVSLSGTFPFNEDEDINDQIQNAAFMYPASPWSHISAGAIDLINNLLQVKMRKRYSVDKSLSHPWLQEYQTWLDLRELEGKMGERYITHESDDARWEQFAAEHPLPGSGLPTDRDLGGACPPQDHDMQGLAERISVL
Excerpt: (§1) Biochemical Selectivity Kinase Assay.
(§2) The dose response curve was curve fit to model number 205 (sigmoidal dose-response model). A ratio of the PRKD2 IC50 to the HPK1 Ki and a ratio of the RSK3 IC50 to the HPK1 Ki, is provided in the respective columns adjacent to the columns for PRKD2 IC50 and RSK3 IC50.

[4] = target: Human recombinant full-length GST-tagged RPS6KA2 (RSK3) (Homo sapiens (Human), UniProt Q15349); test: Biochemical selectivity kinase assay (Z'-LYTE FRET), RSK3; conditions: for IC50: 10 μM ATP (~Km); for RSK3 IC50/HPK1 Ki: ratio of the RSK3 IC50 to the HPK1 Ki
Sequence of Human recombinant full-length GST-tagged RPS6KA2 (RSK3) (Q15349 whole entry): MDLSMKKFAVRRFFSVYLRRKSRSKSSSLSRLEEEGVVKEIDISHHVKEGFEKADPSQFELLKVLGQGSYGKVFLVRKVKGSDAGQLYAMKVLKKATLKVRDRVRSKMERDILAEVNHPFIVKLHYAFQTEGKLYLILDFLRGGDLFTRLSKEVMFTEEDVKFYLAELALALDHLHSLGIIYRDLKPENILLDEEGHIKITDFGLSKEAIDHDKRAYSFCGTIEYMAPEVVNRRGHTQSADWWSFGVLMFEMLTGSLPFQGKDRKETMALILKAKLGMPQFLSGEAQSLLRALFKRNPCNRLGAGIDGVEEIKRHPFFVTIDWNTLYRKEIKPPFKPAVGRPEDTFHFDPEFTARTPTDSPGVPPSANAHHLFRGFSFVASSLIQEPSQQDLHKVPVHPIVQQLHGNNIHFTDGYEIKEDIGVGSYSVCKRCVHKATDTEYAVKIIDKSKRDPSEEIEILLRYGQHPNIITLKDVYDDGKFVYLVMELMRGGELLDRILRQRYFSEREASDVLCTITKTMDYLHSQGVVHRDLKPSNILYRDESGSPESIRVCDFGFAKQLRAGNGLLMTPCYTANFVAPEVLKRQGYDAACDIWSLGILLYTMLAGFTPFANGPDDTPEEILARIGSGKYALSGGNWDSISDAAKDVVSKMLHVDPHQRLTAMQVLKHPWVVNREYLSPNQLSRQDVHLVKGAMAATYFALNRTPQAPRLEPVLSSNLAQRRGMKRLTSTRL
Excerpt: as §1, §2

Sequence of human full-length autophosphorylated recombinant HPK1 (Q92918 other isoform, or with tags, fused parts or gaps): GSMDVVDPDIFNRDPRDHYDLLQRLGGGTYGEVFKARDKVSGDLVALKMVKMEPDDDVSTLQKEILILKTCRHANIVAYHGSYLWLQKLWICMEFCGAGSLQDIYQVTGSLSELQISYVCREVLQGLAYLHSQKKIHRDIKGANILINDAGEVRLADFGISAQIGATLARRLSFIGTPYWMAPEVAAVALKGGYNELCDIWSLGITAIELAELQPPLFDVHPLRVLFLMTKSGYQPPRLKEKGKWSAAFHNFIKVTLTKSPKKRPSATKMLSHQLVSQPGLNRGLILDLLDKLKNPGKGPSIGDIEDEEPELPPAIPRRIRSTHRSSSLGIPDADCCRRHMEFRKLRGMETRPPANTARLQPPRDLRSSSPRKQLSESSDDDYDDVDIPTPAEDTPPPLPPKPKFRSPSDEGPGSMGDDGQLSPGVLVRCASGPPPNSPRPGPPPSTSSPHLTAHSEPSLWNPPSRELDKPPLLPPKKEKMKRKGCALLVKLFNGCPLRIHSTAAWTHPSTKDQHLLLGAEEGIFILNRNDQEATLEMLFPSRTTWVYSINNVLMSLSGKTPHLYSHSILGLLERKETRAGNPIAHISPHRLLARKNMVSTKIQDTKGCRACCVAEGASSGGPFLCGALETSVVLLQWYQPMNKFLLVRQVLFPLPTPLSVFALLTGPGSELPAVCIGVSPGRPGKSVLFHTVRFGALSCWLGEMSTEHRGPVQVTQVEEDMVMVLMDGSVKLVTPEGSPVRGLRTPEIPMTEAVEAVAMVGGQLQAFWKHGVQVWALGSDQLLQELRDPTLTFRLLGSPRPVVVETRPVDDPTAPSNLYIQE

| Structure (SMILES) | Ki [1] [nM] | IC50 [2] [nM] | IC50 [3] [nM] | PRKD2 IC50/HPK1 Ki [3] | IC50 [4] [nM] | RSK3 IC50/HPK1 Ki [4] |
| --- | --- | --- | --- | --- | --- | --- |
| CC[C@H]1CCc2nnc(-c3cccc(N4Cc5c(cc(N6CCC[C@H]6C)nc5[C@H](C)N)C4=O)n3)n21 [Example 3, 4-[(1S)-1-aminoethyl]-2-{6-[(5S)-5-ethyl-6,7-dihydro-5H-pyrrolo[2,1-c][1,2,4]triazol-3-yl]pyridin-2-yl}-6-[(2R)-2-methylpyrrolidin-1-yl]-2,3-dihydro-1H-pyrrolo[3,4-c]pyridin-1-one] | < 0.05 | 34 | 6.54 | >130 | 3.33 | >66 |
| CCCn1cnnc1-c1cccc(N2Cc3c(cc(N(C)C)nc3CNC)C2=O)n1 [Example 300, 6-(dimethylamino)-4-[(methylamino)methyl]-2-[6-(4-propyl-4H-1,2,4-triazol-3-yl)pyridin-2-yl]-2,3-dihydro-1H-pyrrolo[3,4-c]pyridin-1-one] | – | 94 | 1.93 | 14 | 6.26 | 23 |
| CCCn1cnnc1-c1cccc(N2Cc3c(cc(C4(C)CC4)nc3[C@@H](N)CC)C2=O)n1 (single isomer, unassigned) [Example 122, 4-[(1ξ)-1-aminopropyl]-6-(1-methylcyclo-propyl)-2-[6-(4-propyl-4H-1,2,4-triazol-3-yl)pyridin-2-yl]-2,3-dihydro-1H-pyrrolo[3,4-c]pyridin-1-one] | 0.78 | 354 | – | – | – | – |
| CCCn1c(C)nnc1-c1cccc(N2Cc3c(cc(N4CCC[C@H]4C)nc3[C@H](C)N)C2=O)n1 (single isomer, unassigned) [Example 136] | 0.22 | 90 | – | – | – | – |
| CC[C@@H](N)c1nc(N(C)C(C)C)cc2c1CN(c1cccc(-c3nnc4n3[C@@H](CO)CC4)n1)C2=O [Example 20, 4-[(1R)-1-aminopropyl]-2-{6-[(5R)-5-(hydroxy-methyl)-6,7-dihydro-5H-pyrrolo[2,1-c][1,2,4]triazol-3-yl]pyridin-2-yl}-6-[methyl(propan-2-yl)amino]-2,3-dihydro-1H-pyrrolo[3,4-c]pyridin-1-one] | < 0.05 | 23 | – | – | – | – |
| CCn1cnnc1-c1cccc(N2Cc3c(cc(C4(C)CC4)nc3[C@H](C)NC)C2=O)n1 [Example 112, 2-[6-(4-ethyl-4H-1,2,4-triazol-3-yl)pyridin-2-yl]-4-[(1S)-1-(methylamino)ethyl]-6-(1-methylcyclo-propyl)-2,3-dihydro-1H-pyrrolo[3,4-c]pyridin-1-one] | 0.77 | 421 | – | – | – | – |
| CCCn1c(C)nnc1-c1cccc(N2Cc3c(cc(N(C)C(C)C)nc3C(C)(C)N)C2=O)n1 [Example 139, 4-(2-amino-propan-2-yl)-6-[methyl (propan-2-yl)amino]-2-[6-(5-methyl-4-propyl-4H-1,2,4-triazol-3-yl)pyridin-2-yl]-2,3-dihydro-1H-pyrrolo[3,4-c]pyridin-1-one] | 0.27 | 104 | – | – | – | – |
| CNCc1nc(N(C)C(C)C)cc2c1CN(c1cccc(-c3nnc4n3[C@@H](C)C[C@H]4C)n1)C2=O [Example 212, 2-{6-[(5S,7R)-5,7-dimethyl-6,7-dihydro-5H-pyrrolo[2,1-c] [1,2,4]triazol-3-yl]pyridin-2-yl}-4-[(methyl-amino)methyl]-6-[methyl (propan-2-yl)amino]-2,3-dihydro-1H-pyrrolo[3,4-c] pyridin-1-one] | 0.32 | 159 | – | – | – | – |
| CCN(C)c1cc2c(c(C(C)(C)N)n1)CN(c1cccc(-c3nnc(C)n3CC)n1)C2=O [Example 123, 4-(2-aminopropan-2-yl)-6-[ethyl(methyl)amino]-2-[6-(4-ethyl-5-methyl-4H-1,2,4-triazol-3-yl)pyridin-2-yl]-2,3-dihydro-1H-pyrrolo[3,4-c]pyridin-1-one] | 0.97 | 243 | – | – | – | – |
| CNCc1nc(N(C)C)cc2c1CN(c1cccc(-c3nnc4n3[C@@H](C)CC4)n1)C2=O [Example 208, 6-(dimethyl-amino)-4-[(methylamino)methyl]-2-{6-[(5S)-5-methyl-6,7-dihydro-5H-pyrrolo[2,1-c] [1,2,4]triazol-3-yl]pyridin-2-yl}-2,3-dihydro-1H-pyrrolo[3,4-c] pyridin-1-one] | 0.6 | 85 | – | – | – | – |
| CC[C@@H]1CCc2nnc(-c3cccc(N4Cc5c(cc(N6CCC[C@H]6C)nc5[C@H](N)CC)C4=O)n3)n21 (single isomer, unassigned) [Example 13] | < 0.07 | 36 | – | – | – | – |
| CC[C@H]1CCc2nnc(-c3cccc(N4Cc5c(cc(N(C)C)nc5CNC)C4=O)n3)n21 [Example 206, 6-(dimethyl-amino)-2-{6-[(5S)-5-ethyl-6,7-dihydro-5H-pyrrolo[2,1-c] [1,2,4]triazol-3-yl]pyridin-2-yl}-4-[(methyl-amino)methyl]-2,3-dihydro-1H-pyrrolo[3,4-c] pyridin-1-one] | 0.12 | 78 | – | – | – | – |

Further lines, results first:

| Ki [1] [nM] | IC50 [2] [nM] | IC50 [3] [nM] | PRKD2 IC50/HPK1 Ki [3] | IC50 [4] [nM] | RSK3 IC50/HPK1 Ki [4] | Structure (SMILES) |
| --- | --- | --- | --- | --- | --- | --- |
| 1.5 | 324 | – | – | – | – | CCCn1cnnc1-c1cccc(N2Cc3c(cc(C4(C)CC4)nc3[C@H](C)N)C2=O)n1 (single isomer, unassigned) [Example 118, 4-[(1ξ)-1-aminoethyl]-6-(1-methyl-cyclopropyl)-2-[6-(4-propyl-4H-1,2,4-triazol-3-yl)pyridin-2-yl]-2,3-dihydro-1H-pyrrolo[3,4-c]pyridin-1-one] |
| 1.04 | 182 | – | – | – | – | CC[C@@H]1CCc2nnc(-c3cccc(N4Cc5c(cc(N6CCC[C@H]6C)nc5CNC)C4=O)n3)n21 [Example 203, 2-{6-[(5R)-5-ethyl-6,7-dihydro-5H-pyrrolo[2,1-c] [1,2,4]triazol-3-yl]pyridin-2-yl}-4-[(methyl-amino)methyl]-6-[(2R)-2-methylpyrroli-din-1-yl]-2,3-dihydro-1H-pyrrolo[3,4-c] pyridin-1-one] |
| 0.37 | 143 | – | – | – | – | CCCn1c(C)nnc1-c1cccc(N2Cc3c(cc(N4CCC[C@H]4C)nc3[C@@H](C)N)C2=O)n1 (single isomer, unassigned) [Example 135] |
| 5 | 329 | – | – | – | – | C[C@@H]1CCc2nnc(-c3cccc(N4Cc5c(cc(N(C)C)nc5C(C)(C)N)C4=O)n3)n21 (single isomer, unassigned) [Example 23, 4-(2-aminopropan-2-yl)-6-(dimethyl-amino)-2-{6-[(5ξ)-5-methyl-6,7-dihydro-5H-pyrrolo[2,1-c][1,2,4]triazol-3-yl]pyridin-2-yl}-2,3-dihydro-1H-pyrrolo[3,4-c]pyridin-1-one] |
| 0.37 | 98 | – | – | – | – | CCN(C)c1cc2c(c(C(C)(C)N)n1)CN(c1cccc(-c3nncn3CC)n1)C2=O [Example 124, 4-(2-aminopropan-2-yl)-6-[ethyl(methyl)amino]-2-[6-(4-ethyl-4H-1,2,4-triazol-3-yl)pyridin-2-yl]-2,3-dihydro-1H-pyrrolo[3,4-c]pyridin-1-one] |
| 0.72 | 133 | – | – | – | – | C[C@H](N)c1nc(N2CCC[C@H]2C)cc2c1CN(c1cccc(-c3nnc4n3[C@@H](C)CC4)n1)C2=O (single isomer, unassigned) [Example 26] |
| < 0.045 | 64 | – | – | – | – | CC[C@@H](N)c1nc(N(C)C)cc2c1CN(c1cccc(-c3nnc4n3[C@@H](C)CC4)n1)C2=O [Example 28, 4-[(1R)-1-aminopropyl]-6-(dimethyl-amino)-2-{6-[(5S)-5-methyl-6,7-dihydro-5H-pyrrolo[2,1-c][1,2,4]triazol-3-yl]pyridin-2-yl}-2,3-dihydro-1H-pyrrolo[3,4-c]pyridin-1-one] |
| 0.15 | 26 | – | – | – | – | CC[C@@H](N)c1nc(N(C)C(C)C)cc2c1CN(c1cccc(-c3nnc4n3[C@@H](CF)CC4)n1)C2=O [Example 34, 4-[(1R)-1-aminopropyl]-2-{6-[(5R)-5-(fluoromethyl)-6,7-dihydro-5H-pyrrolo[2,1-c][1,2,4]triazol-3-yl]pyridin-2-yl}-6-[methyl (propan-2-yl)amino]-2,3-dihydro-1H-pyrrolo[3,4-c]pyridin-1-one] |
| – | – | 155 | – | 47 | – | CC[C@@H](N)c1nc(N2CCC[C@H]2C)cc2c1CN(c1cccc(-c3nnc4n3[C@@H](C)CC4)n1)C2=O [Example 1, 4-[(1R)-1-aminopropyl]-2-{6-[(5S)-5-methyl-6,7-dihydro-5H-pyrrolo[2,1-c][1,2,4]triazol-3-yl]pyridin-2-yl}-6-[(2R)-2-methylpyrrolidin-1-yl]-2,3-dihydro-1H-pyrrolo[3,4-c]pyridin-1-one] |
| 0.11 | 59 | – | – | – | – | CCn1cnnc1-c1cccc(N2Cc3c(cc(N4CCC[C@H]4C)nc3[C@H](C)N)C2=O)n1 (single isomer, unassigned) [Example 150] |
| < 0.05 | 56 | – | – | – | – | C[C@H](N)c1nc(N2CCC[C@H]2C)cc2c1CN(c1cccc(-c3nnc4n3[C@H](C)CC4)n1)C2=O (single isomer, unassigned) [Example 27] |
| 0.6 | 171 | – | – | – | – | CCCn1c(C)nnc1-c1cccc(N2Cc3c(cc(N(C)C(C)C)nc3[C@H](C)N)C2=O)n1 (single isomer, unassigned) [Example 149, 4-[(1ξ)-1-aminoethyl]-6-[methyl (propan-2-yl)amino]-2-[6-(5-methyl-4-propyl-4H-1,2,4-triazol-3-yl)pyridin-2-yl]-2,3-dihydro-1H-pyrrolo[3,4-c]pyridin-1-one] |
